First: c1nc(N2CCCCCCC2)c2cc[nH]c2n1 [Example 17, 4-Azocan-1-yl-7H-pyrrolo[2,3-d]pyrimidine]
Second: c1nc(N2CCCCCC2)c2cc[nH]c2n1 [Example 27, 4-Azepan-1-yl-7H-pyrrolo[2,3-d]pyrimidine]
The melting point of the first is higher: 225 to 226 °C for the first, 210 °C for the second.

First: CCCC1CCCCN1c1ncnc2[nH]ccc12 (stereo not drawn) [Example 24, 4-(2-Propyl-piperidin-1-yl)-7H-pyrrolo[2,3-d]pyrimidine]
Second: Clc1c[nH]c2ncnc(N3CCCCC3)c12 [Example 61, 5-Chloro-4-piperidin-1-yl-7H-pyrrolo[2,3-d]pyrimidine]
The melting point of the first is lower: 106 to 107 °C for the first, 170 to 172 °C for the second.

First: Clc1c[nH]c2ncnc(N3CCCC4CCCCC43)c12 (stereo not drawn) [Example 39, 1-(5-Chloro-7H-pyrrolo[2,3-d]pyrimidin-4-yl)-decahydro-quinoline]
Second: Clc1c[nH]c2ncnc(N3CCC4CCCCC43)c12 (stereo not drawn) [Example 62, 5-Chloro-4-(octahydro-indol-1-yl)-7H-pyrrolo[2,3-d]pyrimidine]
The melting point of the first is lower: 190 to 192 °C for the first, 193 °C for the second.

First: N#Cc1c[nH]c2ncnc(N3CCCCC3)c12 [Example 78, 4-Piperidin-1-yl-7H-pyrrolo[2,3-d]pyrimidine-5-carbonitrile]
Second: C#Cc1c[nH]c2ncnc(N3CCCCC3)c12 [Example 79, 5-Ethynyl-4-piperidin-1-yl-7H-pyrrolo[2,3-d]pyrimidine]
The melting point of the first is higher: 209 to 211 °C for the first, 179 to 181 °C for the second.

In the case of Cc1cc2c(N(C)C3CCCCC3)ncnc2[nH]1 [Example 59, Cyclohexyl-methyl-(6-methyl-7H-pyrrolo[2,3-d]pyrimidin-4-yl)-amine], the melting point is reported as 221 °C (dec.).

— US7569569B2, “Pyrrolo[2,3-d]pyrimidine compounds” (Pfizer Inc., priority 1998, dated 2009)
